Source: patent publication US4853221A, “Method for treating non-small cell lung cancer, head and neck cancers and breast cancer” (Warner-Lambert Company, priority 1987, dated 1989)

What was measured:
Walker-256 = test: Inhibition of Walker-256 cell growth in vitro; assay type: cell-based; details: Mus musculus, 48 h; Murine Walker-256; read-out: ED50 (the source's name)
Method: (§1) Two leukemia cell lines (L1210 and L5178Y) and two solid tumor cell lines (Sarcoma 180 and Walker 256) were used in these studies.
(§2) Logarithmically growing L1210 cells (approximately 3×10^5 cells/ml) were diluted with Fischer's medium (containing 10% horse serum) to an approximate concentration of 5×10^4 cells/ml. Cells were planted in duplicate into 15 ml culture tubes containing either no drug or various amounts of drug, and incubated for 48 hours at 37° C. before being counted.
(§3) Trimetrexate was also evaluated in a similar manner side-by-side with methotrexate for its effect on the growth of three additional murine cell lines (L5178Y, Sarcoma-180, and Walkler-256) and three human cell lines (acute myelogenous leukemia K-562, T-cell 8402, and B-cell 8392), propagated in vitro.

Breast tumor = test: Human tumor cloning system, breast tumors; assay type: cell-based; details: one hour, 10 specimens
From the text: (§4) The activity of trimetrexate was compared with that of methotrexate in tests with a human tumor cloning system (Latham, et al., Proc. Am. Assoc. Cancer Res., 24: 278 (1983)). The data from these tests appear in Table III were the activities are expressed as the numbers of tumors with 50% or greater reduction in tumor colony forming units after one hour exposure to the drug.

cells in culture = test: Concentration reached in cells in culture; assay type: cell-based; details: compared with methotrexate
human tumor cultures = test: Human tumor cloning system, all tumors; assay type: cell-based; details: for Number of Tumors with 50% or Greater Decrease in Tumor Colony Forming Units: Totals, one hour, 54 specimens
From the text: as §4

B-16 Melanoma = test: Antitumor activity against B-16 melanoma in mice; assay type: in vivo, mouse; details: for Life Span % ILS / Life Span % T/C: ip daily, Days 1-9
Method: (§5) The growth inhibition properties of 5-methyl-6-[[(3,4,5-trimethoxyphenyl)amino]methyl]-2,4-quinazolinediamine (trimetrexate) against several transplanted murine tumors were evaluated employing the antitumor screening program of the Drug Evaluation Branch of the National Cancer Institute. The protocols for these tests is described in Cancer Chemotherapy Reports, 3: 1-103 (1972). The dosing schedules are results from these tests appear in Table IV.
(§6) In the L1210, P388, and B-16 melanoma models, results are expressed as a percentage of median control survival time. Percentage of increase in survival time and/or cures (30 day survivors) were the parameters used to measure the effectiveness of the agents. An initial median survival value for treated over control percentage (% T/C) equal to or greater than 125% was considered indicative of activity. For confirmatory activity, two multidose assays must show % T/C values equal to or greater than 150%.
(§7) Percent increase in median life span (% ILS) values appearing in the tables were calculated from the formula; 100×(median life span in days of treated mice minus median life span in days of untreated mice) divided by median life span in days of untreated control mice. That is, % ILS=[100×(T-C)]/C. % T/C and %ILS are directly interconvertible by the formula % ILS=% T/C -100.
B16 Melanotic melanoma was implanted into BD2F1 mice in the form of a tumor "brei" prepared from a 1:10 weight/volume homogenate of the tumor in balanced salt solution.
(§8) In all of the mouse tumor studies described above, routine controls consisted of matching ten normal mice (with no tumors) to each tumor-bearing treatment group and injecting them with the same drug at the same dosages, schedules, days of administration, and drug route as the tumor-bearing mice. In this way, drug-induced toxicity (lethality and weight loss) could be clearly separated from the effects of the drug on the tumors.

[1] = system: non-small cell lung cancer; test: Phase II trial, non-small cell lung cancer; assay type: in vivo, human
Method: The efficacy and safety of trimetrexate in the treatment of patients with non-small cell lung cancer was evaluated in a 16-center Phase II study.
Initially, all patients received a single 8 mg/m^2 dose of trimetrexate daily for five days of a 21-day treatment course. The dose was administered at three- or four-week intervals, with the number of treatment courses dependent upon the patient's response.
Objective response was determined by a decrease from baseline in tumor size as set forth by the World Health Organization (WHO) response criteria. Duration of response was measured from the date of first treatment to the first date when progressive disease was documented.
Responses were classified as complete or partial. A complete response was defined as no evidence of disease and a partial response as a 50% or greater decrease in overall tumor size without evidence of progression in 28 days.

[2] = system: murine tumor cell lines (L5178Y, Sarcoma-180, Walker-256); test: Comparison with methotrexate against murine tumor cell lines in vitro; assay type: cell-based; details: all of the murine tumor cell lines tested
Method: as §1, §2, §3

P388 = test: Antitumor activity against P388 leukemia in mice; assay type: in vivo, mouse; details: for Life Span % ILS / Life Span % T/C: optimal dose 40 mg/kg (dose range 80-2.5), ip daily, Days 1-9
Method: as §5, §6, §7
L1210 Leukemic Cells (10^5 /mouse) and P388 leukemic cells (10^6 /mouse)were in the ascites form and were transferred to BD2F1 or CD2F1 mice by intraperitoneal (ip) injection of 0.1 ml of cells taken from animals bearing 6- to 7-day old tumors. Leukemic cells were injected ip one day prior to the start of treatment.
as §8

Colon tumor = test: Human tumor cloning system, colon tumors; assay type: cell-based; details: one hour, 9 specimens
From the text: as §4

B-Cell 8392 = test: Inhibition of B-Cell 8392 growth in vitro; assay type: cell-based, human; details: 48 h; Human B-Cell 8392; read-out: ED50 (the source's name)
Method: as §2, §3

[3] = optimal dose 20 mg/kg (dose range 20-0.62)
[4] = optimal dose 20 mg/kg (dose range 40-1.25)

**Q.** How did the IC50 (Walker-256) turn out when COc1cc(NCc2ccc3nc(N)nc(N)c3c2C)cc(OC)c1OC [Trimetrexate, 5-methyl-6-[[(3,4,5-trimethoxyphenyl)amino]methyl]-2,4-quinazolinediamine] was run?
**A.** 5 nM

**Q.** And the “Number of Tumors with 50% or Greater Decrease in Tumor Colony Forming Units” value (Breast tumor; trimetrexate 0.1 μg/ml)?
**A.** 0

**Q.** And the “Number of Tumors with 50% or Greater Decrease in Tumor Colony Forming Units” value (Breast tumor; trimetrexate 1.0 μg/ml)?
**A.** 2

**Q.** And the “concentration reached in cells in culture” value (cells in culture)?
**A.** higher concentration than methotrexate

**Q.** What about the “Number of Tumors with 50% or Greater Decrease in Tumor Colony Forming Units” value (human tumor cultures; trimetrexate 0.1 μg/ml) of the same molecule?
**A.** 11

**Q.** What about the “Number of Tumors with 50% or Greater Decrease in Tumor Colony Forming Units” value (human tumor cultures; trimetrexate 1.0 μg/ml) of the same molecule?
**A.** 13

**Q.** And the “human tumor cultures sensitive to trimetrexate and resistant to methotrexate” value (human tumor cultures; trimetrexate 0.1 μg/ml, methotrexate 0.3 μg/ml, 8/54)?
**A.** 15%

**Q.** What about the “antitumor activity” value (B-16 Melanoma; intraperitoneally implanted) of the same molecule?
**A.** good activity

**Q.** What about the “Life Span % ILS” value (B-16 Melanoma; [3]) of the same molecule?
**A.** 50%

**Q.** And the “Life Span % T/C” value (B-16 Melanoma; [3])?
**A.** 150%

**Q.** And the “Life Span % ILS” value (B-16 Melanoma; [4])?
**A.** 64%

**Q.** And the “Life Span % T/C” value (B-16 Melanoma; [4])?
**A.** 164%

**Q.** What about the “patients with stable disease” value ([1]; 23 patients) of the same molecule?
**A.** 39%

**Q.** What about the “median time to progressive disease” value ([1]; 23 patients with stable disease) of the same molecule?
**A.** 15.7 weeks

**Q.** And the “patients who only experienced progressive disease” value ([1]; 25 patients)?
**A.** 42%

**Q.** What about the “median time to progression” value ([1]; 25 patients who only experienced progressive disease) of the same molecule?
**A.** 3.4 weeks

**Q.** What about the “median time to progressive disease” value ([1]; 55 of the 59 evaluable patients, range 1.9-75.0) of the same molecule?
**A.** 7.9 weeks

**Q.** What about the “patients with partial response” value ([1]; 59 evaluable patients, initial 8 mg/m^2 daily for five days of a 21-day course) of the same molecule?
**A.** Eleven

**Q.** And the “response rate (partial response)” value ([1]; 95% confidence interval 9%-29%, 59 evaluable patients)?
**A.** 19%

**Q.** And the “additional patients with 50% regression only by liver measurements” value ([1]; in vivo)?
**A.** One

**Q.** What about the “overall median survival time” value ([1]; in vivo) of the same molecule?
**A.** 26.4 weeks

**Q.** And the “patients who only experienced progressive disease (number)” value ([1]; in vivo)?
**A.** 25 patients

**Q.** What about the “patients with stable disease (number)” value ([1]; in vivo) of the same molecule?
**A.** 23 patients

**Q.** What about the “patients without progressive disease at end of reporting period” value ([1]; in vivo) of the same molecule?
**A.** Four

**Q.** And the “median time to progressive disease” value ([1]; patients who responded, range 11.1-47.0)?
**A.** 24.9 weeks

**Q.** What about the “median duration of partial response” value ([1]; range 5.6-40.7) of the same molecule?
**A.** 15.3 weeks

**Q.** And the “potency relative to methotrexate” value [2]?
**A.** more potent than methotrexate

**Q.** And the “antitumor activity” value (P388; mouse, in vivo)?
**A.** good activity

**Q.** What about the “Life Span % ILS” value (P388; first line) of the same molecule?
**A.** 143%

**Q.** What about the “Life Span % T/C” value (P388; first line) of the same molecule?
**A.** 243%

**Q.** What about the “Life Span % ILS” value (P388; second line) of the same molecule?
**A.** 142%

**Q.** And the “Life Span % T/C” value (P388; second line)?
**A.** 242%

**Q.** What about the “Number of Tumors with 50% or Greater Decrease in Tumor Colony Forming Units” value (Colon tumor; trimetrexate 0.1 μg/ml) of the same molecule?
**A.** 4

**Q.** And the “Number of Tumors with 50% or Greater Decrease in Tumor Colony Forming Units” value (Colon tumor; trimetrexate 1.0 μg/ml)?
**A.** 4

**Q.** What about the IC50 (B-Cell 8392) of the same molecule?
**A.** 5 nM
